Like-named read-outs stand apart in the source and are kept apart here. Some results are limits rather than exact numbers.

This is an account of results in US20230092890A1, “1, 3, 4-Oxadiazole derivative compounds as histone deacetylase 6 inhibitor, and the pharmaceutical composition comprising the same” (Chong Kun Dang Pharmaceutical Corp., priority 2019, published 2023).

One test addresses T1, HDAC6 human recombinant (Homo sapiens, UniProt Q9UBN7).
T1 construct: purchased Calbiochem 382180
T1 sequence (Q9UBN7 1-1215): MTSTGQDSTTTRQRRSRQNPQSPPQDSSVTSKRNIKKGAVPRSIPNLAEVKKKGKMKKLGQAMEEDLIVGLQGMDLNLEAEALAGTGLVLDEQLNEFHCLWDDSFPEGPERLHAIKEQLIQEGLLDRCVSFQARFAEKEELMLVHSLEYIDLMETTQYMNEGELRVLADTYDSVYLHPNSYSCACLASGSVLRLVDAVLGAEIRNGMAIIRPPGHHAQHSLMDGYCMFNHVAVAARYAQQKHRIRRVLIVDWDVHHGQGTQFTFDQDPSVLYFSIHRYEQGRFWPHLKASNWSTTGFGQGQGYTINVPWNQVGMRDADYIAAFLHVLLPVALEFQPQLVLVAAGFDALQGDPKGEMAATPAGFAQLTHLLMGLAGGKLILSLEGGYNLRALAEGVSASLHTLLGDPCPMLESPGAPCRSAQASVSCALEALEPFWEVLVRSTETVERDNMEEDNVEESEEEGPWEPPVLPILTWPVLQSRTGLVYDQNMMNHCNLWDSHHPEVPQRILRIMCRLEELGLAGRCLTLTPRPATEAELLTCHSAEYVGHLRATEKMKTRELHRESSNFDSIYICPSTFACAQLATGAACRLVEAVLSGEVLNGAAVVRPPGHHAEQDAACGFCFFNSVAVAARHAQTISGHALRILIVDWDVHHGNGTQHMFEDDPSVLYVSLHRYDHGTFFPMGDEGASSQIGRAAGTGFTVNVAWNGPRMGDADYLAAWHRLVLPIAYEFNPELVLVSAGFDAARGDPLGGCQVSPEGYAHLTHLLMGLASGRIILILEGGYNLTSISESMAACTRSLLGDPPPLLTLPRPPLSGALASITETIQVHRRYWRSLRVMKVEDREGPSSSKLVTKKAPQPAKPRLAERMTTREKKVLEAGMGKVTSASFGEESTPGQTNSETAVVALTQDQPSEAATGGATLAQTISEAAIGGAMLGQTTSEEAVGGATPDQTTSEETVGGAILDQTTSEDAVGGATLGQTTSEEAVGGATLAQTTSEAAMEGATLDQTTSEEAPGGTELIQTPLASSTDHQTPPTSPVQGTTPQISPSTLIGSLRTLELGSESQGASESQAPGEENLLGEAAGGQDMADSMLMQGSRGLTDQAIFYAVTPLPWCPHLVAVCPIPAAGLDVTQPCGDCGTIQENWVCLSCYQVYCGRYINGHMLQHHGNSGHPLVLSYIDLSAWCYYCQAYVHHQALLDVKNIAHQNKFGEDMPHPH
Nature of the test: HDAC enzyme activity inhibition (in vitro), HDAC6 assay. The format is biochemical. The method, boiled down: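 HDAC6 human recombinant enzyme with fluorimetric substrate; […]. Reaction 60 min at 37° C, then developer 30 min at 37° C; fluorescence read at Ex 390/Em 460.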

The target in another test is T2, HDAC1 (Homo sapiens, UniProt Q13547).
T2 construct: purchased Enzolifesciences BML-AK511
T2 sequence (Q13547 whole entry): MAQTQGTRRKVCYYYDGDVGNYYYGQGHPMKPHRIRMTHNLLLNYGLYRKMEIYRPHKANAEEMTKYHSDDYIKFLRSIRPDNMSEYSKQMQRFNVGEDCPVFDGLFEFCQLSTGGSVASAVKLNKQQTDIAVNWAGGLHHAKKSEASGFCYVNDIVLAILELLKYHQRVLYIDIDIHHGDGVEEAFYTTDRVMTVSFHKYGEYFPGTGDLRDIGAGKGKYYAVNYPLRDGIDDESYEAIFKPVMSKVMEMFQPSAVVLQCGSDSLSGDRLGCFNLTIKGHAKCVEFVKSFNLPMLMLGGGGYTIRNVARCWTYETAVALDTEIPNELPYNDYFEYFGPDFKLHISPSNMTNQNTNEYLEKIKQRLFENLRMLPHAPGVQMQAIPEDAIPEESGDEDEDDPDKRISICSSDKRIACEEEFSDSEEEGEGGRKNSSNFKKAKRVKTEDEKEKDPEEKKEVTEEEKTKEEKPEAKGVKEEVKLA
Briefly: HDAC enzyme activity inhibition (in vitro), HDAC1 Fluorimetric Drug Discovery Assay Kit. The format is biochemical. The method in brief:
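HDAC1 was tested at 100, 1000 and 10000 nM and recombinant human HDAC6 at 0.1, 1, 10, 100 and 1000 nM. Enzyme reactions ran 60 min at 37° C, then developer was added for 30 min at 37° C, and fluorescence (Ex 390, Em 460) was read.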

Setting [1] is: samples at 0.1, 1, 10, 100 and 1000 nM, 37° C. 60 minutes, fluorescence Ex 390, Em 460, read-out: HDAC6 IC50.
[2] abbreviates: samples at 100, 1000 and 10000 nM, 37° C. 60 minutes, fluorescence Ex 390, Em 460, read-out: HDAC1 IC50.

In the case of `CC(C)N1CCC(n2c(=O)n(Cc3ccc(-c4nnc(C(F)F)o4)cn3)c3cc(F)ccc32)CC1` [Compound 51, 3-((5-(5-(difluoromethyl)-1,3,4-oxadiazole-2-yl)pyridine-2-yl)methyl)-5-fluoro-1-(1-isopropylpiperidine-4-yl)-1,3-dihydro-2H-benzo[d]imidazole-2-one], the values for the IC50 at HDAC6 human recombinant (setting [1]) and on HDAC1 (setting [2]) were 32 nM and more than 10000 nM, respectively.

Regarding `O=c1n(Cc2ccc(-c3nnc(C(F)F)o3)cn2)c2cc(F)ccc2n1C1CCN(C2COC2)CC1` [Compound 53, 3-((5-(5-(difluoromethyl)-1,3,4-oxadiazole-2-yl)pyridine-2-yl)methyl)-5-fluoro-1-(1-(oxetan-3-yl)piperidine-4-yl)-1,3-dihydro-2H-benzo[d]imidazole-2-one], the IC50 at HDAC6 human recombinant (setting [1]) is 37 nM; on HDAC1 (setting [2]) it was more than 10000 nM.

In the case of `O=c1n(Cc2ccc(-c3nnc(C(F)F)o3)cn2)c2cc(F)ccc2n1C1CCN(C2CCCCC2)CC1` [Compound 54, 1-(1-cyclohexylpiperidine-4-yl)-3-((5-(5-(difluoromethyl)-1,3,4-oxadiazole-2-yl)pyridine-2-yl)methyl)-5-fluoro-1,3-dihydro-2H-benzo[d]imidazole-2-one], the results for the IC50 on HDAC6 human recombinant (setting [1]) and on HDAC1 (setting [2]) were 39 nM and more than 10000 nM, respectively.

Take `O=c1n(Cc2ccc(-c3nnc(C(F)F)o3)cn2)c2cc(F)ccc2n1C1CCN(C2CCOCC2)CC1` [Compound 55, 3-((5-(5-(difluoromethyl)-1,3,4-oxadiazole-2-yl)pyridine-2-yl)methyl)-5-fluoro-1-(1-(tetrahydro-2H-pyran-4-yl)piperidine-4-yl)-1,3-dihydro-2H-benzo[d]imidazole-2-one]: the figures for the IC50 at HDAC6 human recombinant (setting [1]) and on HDAC1 (setting [2]) were 39 nM and more than 10000 nM, respectively.

With `COCC(C)N1CCC(n2c(=O)n(Cc3ccc(-c4nnc(C(F)F)o4)cn3)c3cc(F)ccc32)CC1` (centres unmarked) [Compound 56, 3-((5-(5-(difluoromethyl)-1,3,4-oxadiazole-2-yl)pyridine-2-yl)methyl)-5-fluoro-1-(1-(1-methoxypropane-2-yl)piperidine-4-yl)-1,3-dihydro-2H-benzo[d]imidazole-2-one], the IC50 on HDAC6 human recombinant (setting [1]) was 34 nM; on HDAC1 (setting [2]), more than 10000 nM.

Take `O=c1n(Cc2ccc(-c3nnc(C(F)F)o3)cn2)c2cc(F)ccc2n1C1CCN(C2CCSCC2)CC1` [Compound 57, 3-((5-(5-(difluoromethyl)-1,3,4-oxadiazole-2-yl)pyridine-2-yl)methyl)-5-fluoro-1-(1-(tetrahydro-2H-thiopyran-4-yl)piperidine-4-yl)-1,3-dihydro-2H-benzo[d]imidazole-2-one]: the IC50 at HDAC6 human recombinant (setting [1]) is 36 nM; on HDAC1 (setting [2]) it was more than 10000 nM.

For `O=c1n(Cc2ccc(-c3nnc(C(F)F)o3)cn2)c2cc(F)ccc2n1C1CCN(C2CCC3(CC2)OCCO3)CC1` [Compound 58, 1-(1-(1,4-dioxaspiro[4.5]decane-8-yl)piperidine-4-yl)-3-((5-(5-(difluoromethyl)-1,3,4-oxadiazole-2-yl)pyridine-2-yl)methyl)-5-fluoro-1,3-dihydro-2H-benzo[d]imidazole-2-one], the IC50 on HDAC6 human recombinant (setting [1]) is 28 nM; at HDAC1 (setting [2]), more than 10000 nM.

Take `CC(=O)N1CCC(N2CCC(n3c(=O)n(Cc4ccc(-c5nnc(C(F)F)o5)cn4)c4cc(F)ccc43)CC2)CC1` [Compound 59, 1-(1′-acetyl-[1,4′-bipiperidine]-4-yl)-3-((5-(5-(difluoromethyl)-1,3,4-oxadiazole-2-yl)pyridine-2-yl)methyl)-5-fluoro-1,3-dihydro-2H-benzo[d]imidazole-2-one]: the IC50 was 38 nM at HDAC6 human recombinant and more than 10000 nM at HDAC1.

Take `CC(=O)N1CCC(n2c(=O)n(Cc3ccc(-c4nnc(C(F)F)o4)cn3)c3cc(F)ccc32)CC1` [Compound 60, 1-(1-acetylpiperidine-4-yl)-3-((5-(5-(difluoromethyl)-1,3,4-oxadiazole-2-yl)pyridine-2-yl)methyl)-5-fluoro-1,3-dihydro-2H-benzo[d]imidazole-2-one]: the IC50 is 31 nM at HDAC6 human recombinant (setting [1]) and more than 10000 nM on HDAC1 (setting [2]).

Regarding `O=C(N1CCOCC1)N1CCC(n2c(=O)n(Cc3ccc(-c4nnc(C(F)F)o4)cn3)c3cc(F)ccc32)CC1` [Compound 61, 3-((5-(5-(difluoromethyl)-1,3,4-oxadiazole-2-yl)pyridine-2-yl)methyl)-5-fluoro-1-(1-(morpholine-4-carbonyl)piperidine-4-yl)-1,3-dihydro-2H-benzo[d]imidazole-2-one], the IC50 is 32 nM on HDAC6 human recombinant (setting [1]) and more than 10000 nM at HDAC1 (setting [2]).

Consider `O=C(c1ccc(C(F)(F)F)cc1)N1CCC(n2c(=O)n(Cc3ccc(-c4nnc(C(F)F)o4)cn3)c3cc(F)ccc32)CC1` [Compound 62, 3-((5-(5-(difluoromethyl)-1,3,4-oxadiazole-2-yl)pyridine-2-yl)methyl)-5-fluoro-1-(1-(4-(trifluoromethyl)benzoyl)piperidine-4-yl)-1,3-dihydro-2H-benzo[d]imidazole-2-one], for which the figures for the IC50 at HDAC6 human recombinant (setting [1]) and at HDAC1 (setting [2]) were 259 nM and more than 10000 nM, respectively.

`O=C(c1ccncc1)N1CCC(n2c(=O)n(Cc3ccc(-c4nnc(C(F)F)o4)cn3)c3cc(F)ccc32)CC1` [Compound 63, 3-((5-(5-(difluoromethyl)-1,3,4-oxadiazole-2-yl)pyridine-2-yl)methyl)-5-fluoro-1-(1-isonicotinoylpiperidine-4-yl)-1,3-dihydro-2H-benzo[d]imidazole-2-one]: the results for the concentration for half-maximal inhibition (IC50) at HDAC6 human recombinant (setting [1]) and on HDAC1 (setting [2]) were 57 nM and more than 10000 nM, respectively.

Regarding `O=C(c1cncnc1)N1CCC(n2c(=O)n(Cc3ccc(-c4nnc(C(F)F)o4)cn3)c3cc(F)ccc32)CC1` [Compound 64, 3-((5-(5-(difluoromethyl)-1,3,4-oxadiazole-2-yl)pyridine-2-yl)methyl)-5-fluoro-1-(1-(pyrimidine-5-carbonyl)piperidine-4-yl)-1,3-dihydro-2H-benzo[d]imidazole-2-one], the IC50 at HDAC6 human recombinant (setting [1]) is 44 nM; on HDAC1 (setting [2]) it was more than 10000 nM.

`Cc1oncc1C(=O)N1CCC(n2c(=O)n(Cc3ccc(-c4nnc(C(F)F)o4)cn3)c3cc(F)ccc32)CC1` [Compound 65, 3-((5-(5-(difluoromethyl)-1,3,4-oxadiazole-2-yl)pyridine-2-yl)methyl)-5-fluoro-1-(1-(5-methylisooxazole-4-carbonyl)piperidine-4-yl)-1,3-dihydro-2H-benzo[d]imidazole-2-one]: the results for the IC50 at HDAC6 human recombinant (setting [1]) and at HDAC1 (setting [2]) were 84 nM and more than 10000 nM, respectively.

Take `Cc1ccc(C(=O)N2CCC(n3c(=O)n(Cc4ccc(-c5nnc(C(F)F)o5)cn4)c4cc(F)ccc43)CC2)o1` [Compound 66, 3-((5-(5-(difluoromethyl)-1,3,4-oxadiazole-2-yl)pyridine-2-yl)methyl)-5-fluoro-1-(1-(5-methylfuran-2-carbonyl)piperidine-4-yl)-1,3-dihydro-2H-benzo[d]imidazole-2-one]: the IC50 on HDAC6 human recombinant (setting [1]) was 72 nM; on HDAC1 (setting [2]), more than 10000 nM.

`COCCC(=O)N1CCC(n2c(=O)n(Cc3ccc(-c4nnc(C(F)F)o4)cn3)c3cc(F)ccc32)CC1` [Compound 67, 3-((5-(5-(difluoromethyl)-1,3,4-oxadiazole-2-yl)pyridine-2-yl)methyl)-5-fluoro-1-(1-(3-methoxypropanoyl)piperidine-4-yl)-1,3-dihydro-2H-benzo[d]imidazole-2-one]: the figures for the IC50 at HDAC6 human recombinant (setting [1]) and at HDAC1 (setting [2]) were 41 nM and more than 10000 nM, respectively.
